Test results published in US9963455B2, “Pyrazolo[1,5-a]pyrimidines as antiviral compounds” (Curovir AB, priority 2014, dated 2018).

How the values were obtained:
Format in all cases: cell-based
[1] = test system: Human parechovirus strain 1; assay: CPE inhibition in mammalian cell culture, HPeV-1; settings: Parechovirus A, read-out: antiviral effect, HPeV-1; for inhibition at 10 µM: Conc. 10 µM; for inhibition at 100 µM: Conc. 0.1 mM
[2] = test system: coxsackie B virus strain 5; assay: CPE inhibition in mammalian cell culture, Cox-B5; parameters: inhibition: dose or concentration left out as unconfirmed; settings: read-out: antiviral effect, B5
Enterovirus strain 30 = assay: CPE inhibition in mammalian cell culture, EV30; settings: read-out: antiviral effect, EV30; for inhibition at 10 µM: Conc. 10 µM; for inhibition at 100 µM: Conc. 0.1 mM; for inhibition at 1 µM: Conc. 1 µM
Enterovirus strain 71 = assay: CPE inhibition in mammalian cell culture, EV71; parameters: inhibition: dose or concentration left out as unconfirmed; settings: for inhibition: Conc.; for inhibition / inhibition at 100 µM: read-out: antiviral effect, EV71; for inhibition at 100 µM: Conc. 0.1 mM
Ljungan virus strain 145 = assay: CPE inhibition in mammalian cell culture, LV145; parameters: inhibition: dose or concentration left out as unconfirmed; settings: Parechovirus B; for inhibition: Conc.; for inhibition / inhibition at 100 µM: read-out: antiviral effect, LV145; for inhibition at 100 µM: Conc. 0.1 mM
[3] = test system: coxsackie B virus strain 1; assay: CPE inhibition in mammalian cell culture, Cox-B1; parameters: inhibition: dose or concentration left out as unconfirmed; settings: for inhibition at 10000 µM / inhibition / inhibition at 1000 µM: read-out: antiviral effect, B1
[4] = test system: coxsackie B virus strain 2; assay: CPE inhibition in mammalian cell culture, Cox-B2; parameters: inhibition: dose or concentration left out as unconfirmed; settings: read-out: antiviral effect, B2
[5] = test system: coxsackie B virus strain 4; assay: CPE inhibition in mammalian cell culture, Cox-B4; parameters: inhibition: dose or concentration left out as unconfirmed; settings: read-out: antiviral effect, B4
Ljungan virus strain 012 = assay: CPE inhibition in mammalian cell culture, LV012; settings: Parechovirus B, read-out: antiviral effect, LV012; for inhibition at 10 µM: Conc. 10 µM; for inhibition at 100 µM: Conc. 0.1 mM; for inhibition at 1 µM: Conc. 1 µM
[6] = test system: encephalomyocarditis virus; assay: CPE inhibition in mammalian cell culture, EMCV; parameters: inhibition: dose or concentration left out as unconfirmed; settings: Cardiovirus A, read-out: antiviral effect, EMCV; for inhibition: Conc.; for inhibition at 100 µM: Conc. 0.1 mM
Porcine Tescho virus = assay: microbe, parasite or virus in culture; parameters: dose or concentration left out as unconfirmed; settings: Conc.; read-out: antiviral effect, PTV
EV68 = assay: CPE inhibition in mammalian cell culture, EV68; parameters: antiviral effect, EV68: unit of the concentration uncertain
Enterovirus strain 6 = assay: microbe, parasite or virus in culture; parameters: inhibition: dose or concentration left out as unconfirmed; settings: for inhibition: read-out: antiviral effect, EV6
[7] = test system: coxsackie B virus strain 3; assay: CPE inhibition in mammalian cell culture, Cox-B3; parameters: inhibition: dose or concentration left out as unconfirmed; settings: for inhibition at 0.01 µM: read-out: % inh.
polio virus strain 1 = assay: microbe, parasite or virus in culture; parameters: inhibition: dose or concentration left out as unconfirmed; settings: read-out: antiviral effect, Polio 1

SMILES	inhibition at 10 µM [1]	inhibition at 10000 µM [2]	inhibition at 10 µM (Enterovirus strain 30)	inhibition (Enterovirus strain 71)	inhibition (Ljungan virus strain 145)	inhibition at 10000 µM [3]	inhibition at 10000 µM [4]	antiviral effect, EV68 (EV68; Conc. 0.1 (unit uncertain))	inhibition [2]	inhibition at 100 µM (Enterovirus strain 30)	inhibition at 100 µM (Enterovirus strain 71)	inhibition at 100 µM (Ljungan virus strain 145)	inhibition [3]	inhibition [4]	inhibition [5]	inhibition (Enterovirus strain 6)	inhibition at 100 µM (Ljungan virus strain 012)	inhibition at 100 µM [6]	inhibition ([7]; read-out: antiviral effect, B3)	inhibition (polio virus strain 1)	further results
COc1ccc(-c2c(C)nn3c(NCC(C)c4ccccc4)cc(C)nc23)cc1OC (stereo not drawn) [Ex. 10, 3-(3,4-dimethoxyphenyl)-2,5-dimethyl-N-(2-phenylpropyl)pyrazolo[1,5-a]pyrimidin-7-amine]	3%	92%	88%	58%	41%	79%	97%														inhibition at 2.5 µM (Ljungan virus strain 145; LV145, Conc. 2.5 μM): 69%; inhibition at 10000 µM [5]: 94%; inhibition at 10 µM (Ljungan virus strain 012): 0%; inhibition [6]: 25%; inhibition (Porcine Tescho virus): 43%
COc1ccc(-c2c(C)nn3c(NCc4ccncc4)cc(C)nc23)cc1OC [Ex. 75, 3-(3,4-dimethoxyphenyl)-2,5-dimethyl-N-(4-pyridylmethyl)pyrazolo[1,5-a]pyrimidin-7-amine]								31%	98%	100%	85%	0%	100%	100%	100%	90%	0%	0%	89%	100%	inhibition at 100 µM [1]: 0%; inhibition at 0.01 µM [7]: 85%
COc1ccc(-c2c(C)nn3c(NCc4ccc(O)cc4)cc(C)nc23)cc1OC [Ex. 81, 4-[[[3-(3,4-dimethoxyphenyl)-2,5-dimethyl-pyrazolo[1,5-a]pyrimidin-7-yl]amino]methyl]phenol]								29%	81%	97%	86%	0%	85%	88%	77%	62%	0%	0%	87%	89%	inhibition at 100 µM [1]: 0%; inhibition at 0.01 µM ([3]; read-out: % inh.): 76%
COc1ccc(-c2cnn3c(NCc4cccc(S(C)(=O)=O)c4)cc(C)nc23)cc1OC [Ex. 101, 3-(3,4-dimethoxyphenyl)-5-methyl-N-[(3-methylsulfonylphenyl)methyl]pyrazolo[1,5-a]pyrimidin-7-amine]									29%	89%	99%	0%		99%		44%	0%	0%	90%	100%	inhibition at 0.1 µM (Enterovirus strain 71; EV71, Conc. 0.1 μM): 99%
COc1ccc(-c2c(C)nn3c(NCc4ccc(F)cc4)cc(C(C)C)nc23)cc1OC [Ex. 111, 3-(3,4-dimethoxyphenyl)-N-[(4-fluorophenyl)methyl]-5-isopropyl-2-methyl-pyrazolo[1,5-a]pyrimidin-7-amine]																					antiviral effect, EV68 (EV68; Conc. 1 (unit uncertain)): 40%; inhibition at 1000 µM [2]: 99%; inhibition at 1 µM (Enterovirus strain 30): 80%; inhibition at 0.1 µM ([3]; read-out: % inh.): 68%; inhibition at 1000 µM [3]: 97%; inhibition at 1000 µM [4]: 96%; inhibition at 1000 µM [5]: 98%; inhibition at 1 µM (Ljungan virus strain 012): 0%; inhibition at 1000 µM ([7]; read-out: antiviral effect, B3): 100%; inhibition at 1000 µM (polio virus strain 1): 100%
COc1ccc(-c2c(C)nn3c(NCc4ccc(C)cc4)cc(C)nc23)cc1OC [Ex. 6, 3-(3,4-dimethoxyphenyl)-2,5-dimethyl-N-(p-tolylmethyl)pyrazolo[1,5-a]pyrimidin-7-amine]	60%	54%	44%	37%	63%	35%	82%														inhibition at 5 µM (Ljungan virus strain 145; LV145, Conc. 5.0 μM): 56%; inhibition at 10000 µM [5]: 69%; inhibition at 10 µM (Ljungan virus strain 012): 28%; inhibition [6]: 0%; inhibition (Porcine Tescho virus): 62%; inhibition at 10000 µM (polio virus strain 1): 19%
COc1ccc(-c2c(C)nn3c(NCc4cccc(S(C)(=O)=O)c4)cc(C)nc23)cc1OC [Ex. 82, 3-(3,4-dimethoxyphenyl)-2,5-dimethyl-N-[(3-methylsulfonylphenyl)methyl]pyrazolo[1,5-a]pyrimidin-7-amine]								24%	89%	94%		0%	95%	98%	100%	89%	0%	0%	91%	100%	inhibition at 0.01 µM [7]: 82%
COc1ccc(-c2c(C)nn3c(NCc4ccc(NS(C)(=O)=O)cc4)cc(C)nc23)cc1OC [Ex. 80, N-[4-[[[3-(3,4-dimethoxyphenyl)-2,5-dimethyl-pyrazolo[1,5-a]pyrimidin-7-yl]amino]methyl]phenyl]methanesulfonamide]																					inhibition at 1 µM ([1]; Conc. 1 µM): 0%; antiviral effect, EV68 (EV68; Conc. 1 (unit uncertain)): 30%; inhibition at 1000 µM [2]: 97%; inhibition at 1 µM (Enterovirus strain 30): 90%; inhibition at 1000 µM [3]: 78%; inhibition at 1000 µM [4]: 96%; inhibition at 1000 µM [5]: 78%; inhibition at 1 µM (Enterovirus strain 6; read-out: % inh.): 93%; inhibition at 1 µM (Ljungan virus strain 012): 0%; inhibition at 1000 µM ([7]; read-out: antiviral effect, B3): 78%; inhibition at 1000 µM (polio virus strain 1): 85%
COc1ccc(CNc2cc(C)nc3c(-c4ccc(OC)c(OC)c4)c(C)nn23)cn1 [Ex. 79, 3-(3,4-dimethoxyphenyl)-N-[(6-methoxy-3-pyridyl)methyl]-2,5-dimethyl-pyrazolo[1,5-a]pyrimidin-7-amine]								46%	98%	10%	88%	0%	88%	84%	78%	0%	0%	0%	87%	79%	inhibition at 100 µM [1]: 0%; inhibition at 1 µM (EV68; EV68, Conc. 1 μM): 51%
CC(C)c1cc(NCc2ccccc2)n2ncc(-c3ccccc3)c2n1 [Ex. 4, N-benzyl-5-isopropyl-3-phenyl-pyrazolo[1,5-a]pyrimidin-7-amine]	7%	0%	0%	69%	61%	36%	0%														inhibition at 2.5 µM (Enterovirus strain 71; EV71, Conc. 2.5 μM): 46%; inhibition at 10000 µM [5]: 53%; inhibition at 10 µM (Ljungan virus strain 012): 28%; inhibition [6]: 81%; inhibition at 10000 µM ([7]; read-out: antiviral effect, B3): 0%; inhibition (Porcine Tescho virus): 87%; inhibition at 10000 µM (polio virus strain 1): 17%
